Measurements: patent publication US20230079819A1, “COMPOUNDS AND USES THEREOF” (Foghorn Therapeutics Inc., priority 2019, published 2023)
Like-named read-outs stand apart in the source and are kept apart here.

Legend:
BRM = biological target: T1, BRM (Homo sapiens, UniProt P51531); assay: ATPase catalytic activity of BRM, ADP-Glo in vitro biochemical assay; settings: 30 nM BRM, 400 μM ATP
T1 construct: made in house; host or cells: High Five insect cells

BRG-1 = biological target: T2, BRG-1 (Homo sapiens, UniProt P51532); assay: ATPase catalytic activity of BRG-1, ADP-Glo in vitro biochemical assay; settings: 30 nM BRG-1, 400 μM ATP
T2 construct: made in house; host or cells: High Five insect cells

[1] = ATPase catalytic activity, read-out: BRM IP50 (μM)*
[2] = ATPase catalytic activity, read-out: BRG1 IP50 (μM)*
[3] = ATPase catalytic activity, read-out: BRM IP50
[4] = ATPase catalytic activity, read-out: BRG1 IP50

T2 sequence (P51532 whole entry): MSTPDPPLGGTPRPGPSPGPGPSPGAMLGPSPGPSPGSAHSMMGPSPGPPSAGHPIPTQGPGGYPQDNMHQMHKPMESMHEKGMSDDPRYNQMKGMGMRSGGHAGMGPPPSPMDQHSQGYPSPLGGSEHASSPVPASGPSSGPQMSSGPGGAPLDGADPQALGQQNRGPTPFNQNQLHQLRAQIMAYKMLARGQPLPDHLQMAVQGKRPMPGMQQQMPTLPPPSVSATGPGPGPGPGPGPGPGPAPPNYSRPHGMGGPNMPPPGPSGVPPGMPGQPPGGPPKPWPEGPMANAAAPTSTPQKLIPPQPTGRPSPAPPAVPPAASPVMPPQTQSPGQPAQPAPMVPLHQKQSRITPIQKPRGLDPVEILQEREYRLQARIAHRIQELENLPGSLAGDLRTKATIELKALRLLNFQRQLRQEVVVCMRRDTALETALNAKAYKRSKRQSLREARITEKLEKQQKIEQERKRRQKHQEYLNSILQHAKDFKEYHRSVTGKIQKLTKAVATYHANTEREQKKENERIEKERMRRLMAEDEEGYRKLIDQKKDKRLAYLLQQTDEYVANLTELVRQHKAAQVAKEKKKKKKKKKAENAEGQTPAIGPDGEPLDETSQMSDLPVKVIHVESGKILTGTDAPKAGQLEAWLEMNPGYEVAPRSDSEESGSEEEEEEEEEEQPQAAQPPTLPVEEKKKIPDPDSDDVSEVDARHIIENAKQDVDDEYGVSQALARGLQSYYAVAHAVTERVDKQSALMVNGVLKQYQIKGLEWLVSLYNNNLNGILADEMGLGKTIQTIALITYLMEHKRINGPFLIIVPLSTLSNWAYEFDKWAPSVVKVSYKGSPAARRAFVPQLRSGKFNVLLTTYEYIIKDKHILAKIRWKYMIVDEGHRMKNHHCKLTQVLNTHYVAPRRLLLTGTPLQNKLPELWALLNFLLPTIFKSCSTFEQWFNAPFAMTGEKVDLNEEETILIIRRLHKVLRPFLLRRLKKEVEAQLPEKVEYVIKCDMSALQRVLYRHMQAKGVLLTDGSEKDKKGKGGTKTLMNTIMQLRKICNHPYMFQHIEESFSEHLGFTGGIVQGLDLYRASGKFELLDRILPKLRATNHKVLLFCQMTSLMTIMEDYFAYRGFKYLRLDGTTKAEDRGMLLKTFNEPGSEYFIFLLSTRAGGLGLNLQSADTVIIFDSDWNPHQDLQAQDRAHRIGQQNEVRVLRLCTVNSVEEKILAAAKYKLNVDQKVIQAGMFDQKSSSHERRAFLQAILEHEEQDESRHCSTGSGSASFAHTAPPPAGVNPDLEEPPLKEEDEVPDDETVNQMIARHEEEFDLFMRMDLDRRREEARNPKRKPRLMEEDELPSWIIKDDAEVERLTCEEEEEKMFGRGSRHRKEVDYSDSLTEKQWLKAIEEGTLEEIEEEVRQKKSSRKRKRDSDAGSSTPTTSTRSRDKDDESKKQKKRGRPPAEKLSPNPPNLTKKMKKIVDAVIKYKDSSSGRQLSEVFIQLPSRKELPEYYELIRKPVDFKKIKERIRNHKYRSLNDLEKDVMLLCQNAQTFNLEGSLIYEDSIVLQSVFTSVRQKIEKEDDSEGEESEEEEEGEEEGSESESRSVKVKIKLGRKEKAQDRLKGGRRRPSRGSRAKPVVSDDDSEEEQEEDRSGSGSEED
T1 sequence (P51531 whole entry): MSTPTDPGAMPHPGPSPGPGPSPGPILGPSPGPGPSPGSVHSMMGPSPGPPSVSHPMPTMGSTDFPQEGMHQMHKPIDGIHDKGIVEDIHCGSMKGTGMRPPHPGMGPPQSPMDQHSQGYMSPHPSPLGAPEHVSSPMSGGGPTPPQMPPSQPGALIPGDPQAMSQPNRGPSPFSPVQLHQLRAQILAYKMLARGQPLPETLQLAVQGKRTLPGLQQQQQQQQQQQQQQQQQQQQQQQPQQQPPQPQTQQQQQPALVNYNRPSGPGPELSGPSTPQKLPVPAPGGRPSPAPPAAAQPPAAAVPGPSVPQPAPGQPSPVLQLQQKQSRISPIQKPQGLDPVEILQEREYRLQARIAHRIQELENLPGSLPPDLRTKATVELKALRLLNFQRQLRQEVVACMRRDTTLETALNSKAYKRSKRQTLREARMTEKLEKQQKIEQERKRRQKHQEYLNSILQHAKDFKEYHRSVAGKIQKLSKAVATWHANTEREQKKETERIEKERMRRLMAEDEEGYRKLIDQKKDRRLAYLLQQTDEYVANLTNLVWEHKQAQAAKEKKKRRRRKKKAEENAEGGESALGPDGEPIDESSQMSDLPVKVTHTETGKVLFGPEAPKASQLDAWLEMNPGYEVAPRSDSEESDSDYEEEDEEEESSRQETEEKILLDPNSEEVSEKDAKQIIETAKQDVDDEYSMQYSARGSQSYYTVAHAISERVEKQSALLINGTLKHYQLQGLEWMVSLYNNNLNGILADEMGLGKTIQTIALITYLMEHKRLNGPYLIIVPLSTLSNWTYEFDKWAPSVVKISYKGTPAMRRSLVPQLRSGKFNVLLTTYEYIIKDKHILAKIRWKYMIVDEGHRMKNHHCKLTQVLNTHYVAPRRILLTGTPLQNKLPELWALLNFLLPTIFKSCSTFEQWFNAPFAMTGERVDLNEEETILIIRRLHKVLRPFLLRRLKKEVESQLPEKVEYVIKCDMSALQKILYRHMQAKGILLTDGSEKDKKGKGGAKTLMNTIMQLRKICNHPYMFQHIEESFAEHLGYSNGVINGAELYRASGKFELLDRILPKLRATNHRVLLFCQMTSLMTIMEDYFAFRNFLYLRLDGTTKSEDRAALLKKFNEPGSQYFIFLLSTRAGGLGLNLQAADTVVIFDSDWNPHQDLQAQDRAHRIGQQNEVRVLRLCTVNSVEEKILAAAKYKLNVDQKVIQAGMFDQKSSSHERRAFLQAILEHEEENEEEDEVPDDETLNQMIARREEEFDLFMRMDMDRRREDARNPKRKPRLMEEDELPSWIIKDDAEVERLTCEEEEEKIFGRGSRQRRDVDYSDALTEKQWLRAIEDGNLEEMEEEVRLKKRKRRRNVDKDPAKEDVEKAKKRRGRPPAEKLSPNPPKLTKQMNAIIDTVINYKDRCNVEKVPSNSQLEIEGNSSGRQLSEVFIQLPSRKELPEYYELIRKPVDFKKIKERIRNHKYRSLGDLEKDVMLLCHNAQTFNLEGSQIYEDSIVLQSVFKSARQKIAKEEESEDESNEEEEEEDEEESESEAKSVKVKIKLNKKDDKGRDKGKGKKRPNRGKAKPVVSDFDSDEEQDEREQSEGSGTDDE

Row | Structure (SMILES) | IC50 (BRM; [1]) [µM] | IC50 (BRG-1; [2]) [µM] | IC50 (BRM; [3]) [µM] | IC50 (BRG-1; [4]) [µM] | further results
1 | CNC(=O)CN(C)c1cc(-c2cccc(-c3csc(NC(=O)CNC(=O)c4ccn(S(C)(=O)=O)c4)n3)c2)ccn1 [Compound 16, N-(2-((4-(3-(2-(methyl(2-(methylamino)-2-oxoethyl)amino)pyridin-4-yl)phenyl)thiazol-2-yl)amino)-2-oxoethyl)-1-(methylsulfonyl)-1H-pyrrole-3-carboxamide] | < 0.01 | < 0.01 | – | – | –
2 | C[C@H](NC(=O)c1ccn(C2(C)COC2)c1)C(=O)Nc1nc(-c2ccc3ccn(C)c(=O)c3c2)cs1 [Compound 348] | > 0.01 | > 0.01 | – | – | –
3 | N#CC1(n2ccc(C(=O)NCC(=O)Nc3nc(-c4cc(F)c5c(c4)OCC5)cs3)n2)CC1 [Compound 803] | – | – | – | – | IC50 (BRM; read-out: BRM IP50): > 0.01 µM; IC50 (BRG-1; read-out: BRG1 IP50): > 0.1 µM
4 | CN(C)CCC(NC(=O)c1ccn(S(C)(=O)=O)c1)C(=O)Nc1nc(-c2cccc(-c3ccncc3)c2)cs1 (stereo not drawn) [Compound 77, N-(4-(dimethylamino)-1-oxo-1-((4-(3-(pyridin-4-yl)phenyl)thiazol-2-yl)amino)butan-2-yl)-1-(methylsulfonyl)-1H-pyrrole-3-carboxamide] | > 0.01 | > 0.01 | – | – | –
5 | CC1(C)OCC12CN(c1cccc(-c3csc(NC(=O)CNC(=O)c4ccn(S(C)(=O)=O)c4)n3)c1)C2 [Compound 157] | > 0.1 | > 0.1 | – | – | –
6 | CC(C)(O)C#Cc1cccc(-c2csc(NC(=O)CNC(=O)c3ccn(S(C)(=O)=O)c3)n2)c1 [Compound 426] | – | – | > 0.01 | > 0.01 | –
7 | COc1cccc(-c2csc(NC(=O)CNC(=O)c3ccn(C(C)(C)C)c3)n2)c1 [Compound 120, 1-(tert-butyl)-N-(2-((4-(3-methoxyphenyl)thiazol-2-yl)amino)-2-oxoethyl)-1H-pyrrole-3-carboxamide] | > 0.01 | > 0.1 | – | – | –
8 | COC[C@H]1CCN(c2cccc(-c3csc(NC(=O)CNC(=O)c4ccn(S(C)(=O)=O)c4)n3)c2)C1 [Compound 200] | > 0.01 | > 0.01 | – | – | –
9 | CS(=O)(=O)n1ccc(C(=O)NCC(=O)Nc2nc(-c3cccc(OCc4ccncc4)c3)cs2)c1 [Compound 106, 1-(methylsulfonyl)-N-(2-oxo-2-((4-(3-(pyridin-4-ylmethoxy)phenyl)thiazol-2-yl)amino)ethyl)-1H-pyrrole-3-carboxamide] | < 0.01 | < 0.01 | – | – | –
10 | Cc1cc(-c2cccc(-c3csc(NC(=O)CNC(=O)c4ccn(S(C)(=O)=O)c4)n3)c2)ccn1 [Compound 154] | < 0.01 | < 0.01 | – | – | –
11 | COC[C@H](NC(=O)c1ccn(C(C)(C)C#N)n1)C(=O)Nc1nc(-c2cc(C)cc(N3C[C@@H](C)O[C@@H](C)C3)n2)cs1 [Compound 817] | – | – | – | – | IC50 (BRM; read-out: BRM IP50): > 0.01 µM; IC50 (BRG-1; read-out: BRG1 IP50): > 0.01 µM
12 | COCC(C)(C)n1ccc(C(=O)NCC(=O)Nc2nc(-c3cccc(-c4ccn(C)n4)c3)cs2)c1 [Compound 27, 1-(1-methoxy-2-methylpropan-2-yl)-N-(2-((4-(3-(1-methyl-1H-pyrazol-3-yl)phenyl)thiazol-2-yl)amino)-2-oxoethyl)-1H-pyrrole-3-carboxamide] | > 0.1 | > 1 | – | – | –
13 | C[C@@H]1CN(c2cccc(-c3csc(NC(=O)[C@H](C)NC(=O)c4ccn(C5(C#N)CC5)n4)n3)n2)C[C@H](C)O1 [Compound 795] | – | – | – | – | IC50 (BRM; read-out: BRM IP50): > 0.01 µM; IC50 (BRG-1; read-out: BRG1 IP50): > 0.1 µM
14 | COC[C@H](NC(=O)c1ccn(S(C)(=O)=O)c1)C(=O)Nc1nc(-c2cccc(-c3cc(C)nc(C)n3)c2)cs1 [Compound 358, N-[(1S)-2-[[4-[3-(2,6-dimethylpyrimidin-4-yl)phenyl]thiazol-2-yl]amino]-1-(methoxymethyl)-2-oxo-ethyl]-1-methylsulfonyl-pyrrole-3-carboxamide] | < 0.01 | < 0.01 | – | – | –
15 | CN1CCc2ccc(-c3csc(NC(=O)CNC(=O)c4ccn(C(C)(C)C)c4)n3)cc2C1=O [Compound 7, 1-(tert-butyl)-N-(2-((4-(2-methyl-1-oxo-1,2,3,4-tetrahydroisoquinolin-7-yl)thiazol-2-yl)amino)-2-oxoethyl)-1H-pyrrole-3-carboxamide] | > 0.01 | > 0.01 | – | – | –
16 | N#CC1(n2ccc(C(=O)NCC(=O)Nc3nc(-c4cc(F)cc(OC5CC5)c4)cs3)n2)CC1 [Compound 796] | – | – | – | – | IC50 (BRM; read-out: BRM IP50): > 0.1 µM; IC50 (BRG-1; read-out: BRG1 IP50): > 0.1 µM
17 | CC(C)(C)C[C@H](NC(=O)c1ccn(S(C)(=O)=O)c1)C(=O)Nc1nc(-c2cccc(-c3ccncc3)c2)cs1 [Compound 76, (S)—N-(4,4-dimethyl-1-oxo-1-((4-(3-(pyridin-4-yl)phenyl)thiazol-2-yl)amino)pentan-2-yl)-1-(methylsulfonyl)-1H-pyrrole-3-carboxamide] | > 0.01 | > 0.01 | – | – | –
18 | CC(C)(C)n1ccc(C(=O)NCC(=O)Nc2nc(-c3cccc(-c4ccncc4)c3)cs2)c1 [Compound 41, 1-(tert-butyl)-N-(2-oxo-2-((4-(3-(pyridin-4-yl)phenyl)thiazol-2-yl)amino)ethyl)-1H-pyrrole-3-carboxamide] | < 0.01 | > 0.01 | – | – | –
19 | COC[C@@H]1CCCN(c2cccc(-c3csc(NC(=O)CNC(=O)c4ccn(C(C)(C)C)c4)n3)n2)C1 [Compound 318] | > 0.01 | > 0.01 | – | – | –
20 | CC(C)(C)n1ccc(C(=O)NCC(=O)Nc2nc(-c3cccc(C#N)c3)cs2)n1 [Compound 36, 1-(tert-butyl)-N-(2-((4-(3-cyanophenyl)thiazol-2-yl)amino)-2-oxoethyl)-1H-pyrazole-3-carboxamide] | > 0.1 | > 0.1 | – | – | –
21 | CC(C)(C)n1ccc(C(=O)NCC(=O)Nc2nc(-c3ccnc(N4CCC(O)CC4)n3)cs2)c1 [Compound 322] | > 0.01 | > 0.01 | – | – | –
22 | CC(C)(C)n1ccc(C(=O)NCC(=O)Nc2nc(-c3ccc4c(c3)OCC4)cs2)c1 [Compound 308] | > 0.01 | > 0.01 | – | – | –
23 | CS(=O)(=O)n1ccc(C(=O)NCC(=O)Nc2nc(-c3cccc(-c4cnn(C5CC5)n4)c3)cs2)c1 [Compound 277] | < 0.01 | > 0.01 | – | – | –
24 | Cc1cccc(-c2cccc(-c3csc(NC(=O)CNC(=O)c4ccn(S(C)(=O)=O)c4)n3)c2)n1 [Compound 407] | – | – | < 0.01 | < 0.01 | –
25 | C[C@@H]1CN(c2nccc(-c3csc(NC(=O)CNC(=O)c4ccn(S(C)(=O)=O)c4)n3)n2)C[C@H](C)O1 [Compound 325] | < 0.01 | < 0.01 | – | – | –
26 | COC[C@H](NC(=O)c1ccn(S(C)(=O)=O)c1)C(=O)Nc1nc(-c2cccc(-c3cnn(C)c3)c2)cs1 [Compound 360] | > 0.01 | > 0.01 | – | – | –

Second part, led by results:

Row | IC50 (BRM; [1]) [µM] | IC50 (BRG-1; [2]) [µM] | IC50 (BRM; [3]) [µM] | IC50 (BRG-1; [4]) [µM] | Structure (SMILES) | further results
27 | – | – | > 0.1 | > 0.1 | CC(C)(C)n1ccc(C(=O)NCC(=O)Nc2nc(-c3cccc(N4CCCC5(CCCO5)C4)n3)cs2)c1 (stereo not drawn) [Compound 669] | –
28 | – | – | > 0.01 | > 0.01 | C[C@H]1CCN(c2cccc(-c3csc(NC(=O)CNC(=O)c4ccn(C(C)(C)C)c4)n3)n2)C1 [Compound 654] | –
29 | – | – | > 0.01 | > 0.01 | COC[C@H](NC(=O)c1ccn(C2(C)COC2)c1)C(=O)Nc1nc(-c2cccc(-c3ccn(C)n3)c2)cs1 [Compound 572] | –
30 | – | – | > 0.01 | > 0.1 | CO[C@H]1C[C@@H](c2cccc(-c3csc(NC(=O)CNC(=O)c4ccn(C(C)(C)C)c4)n3)n2)C1 [Compound 515] | –
31 | – | – | > 0.1 | > 0.1 | COC[C@H](NC(=O)c1ccn(S(C)(=O)=O)c1)C(=O)Nc1nc(-c2cccc(N3CCC3)c2)c(F)s1 [Compound 461] | –
32 | – | – | > 0.1 | > 0.1 | CC1CN(c2cccc(-c3csc(NC(=O)CNC(=O)c4ccn(C(C)(C)C)c4)n3)n2)C1 [Compound 625] | –
33 | – | – | < 0.01 | < 0.01 | COC[C@H](NC(=O)c1ccn(C2(C)COC2)c1)C(=O)Nc1nc(-c2cc(F)c3ccn(C)c(=O)c3c2)cs1 [Compound 564] | –
34 | – | – | > 0.01 | > 0.01 | CCCOC(=O)N1CCC[C@H](c2csc(NC(=O)CNC(=O)c3ccn(S(C)(=O)=O)c3)n2)C1 [Compound 771] | –
35 | – | – | < 0.01 | < 0.01 | COC[C@H](NC(=O)c1ccn(S(C)(=O)=O)c1)C(=O)Nc1nc(-c2cccc(N3CC[C@H]4OCC[C@@H]4C3)n2)cs1 [Compound 774] | –
36 | – | – | > 0.01 | > 0.1 | CS(=O)(=O)n1ccc(C(=O)NCC(=O)Nc2nc(-c3cccc([C@@H]4CC4(F)F)n3)cs2)c1 [Compound 608] | –
37 | – | – | > 0.1 | > 0.1 | CC(C)(C)n1ccc(C(=O)NCC(=O)Nc2nc(-c3cccc(OC(F)F)n3)cs2)c1 [Compound 512] | –
38 | – | – | > 0.1 | > 0.1 | CC(C)(C)n1ccc(C(=O)NCC(=O)Nc2nc(-c3cccc(N4CCN5CCOCC5C4)n3)cs2)c1 (stereo not drawn) [Compound 638] | –
39 | – | – | > 0.01 | > 0.01 | N#CC1(n2ccc(C(=O)NCC(=O)Nc3nc(-c4cccc(OC(F)(F)F)c4)cs3)c2)CC1 [Compound 553] | –
40 | – | – | > 0.01 | > 0.01 | CS(=O)(=O)n1ccc(C(=O)NCC(=O)Nc2nc(-c3cccc(C45CCOCC4C5)c3)cs2)c1 (stereo not drawn) [Compound 743] | –
41 | – | – | < 0.01 | > 0.01 | CC(C)(C)n1ccc(C(=O)NCC(=O)Nc2nc(-c3cccc(N4CCc5cnccc5C4)n3)cs2)c1 [Compound 681] | –
42 | – | – | < 0.01 | < 0.01 | COC[C@H](NC(=O)c1ccn(S(C)(=O)=O)c1)C(=O)Nc1nc(-c2cc(F)cc(OC)c2)cs1 [Compound 726] | –
43 | – | – | > 0.1 | > 0.1 | COC(=O)N1CCC[C@H](c2csc(NC(=O)CNC(=O)c3ccn(C(C)(C)C)c3)n2)C1 [Compound 581] | –
44 | – | – | > 0.01 | > 0.01 | Cc1nc(C2CCCN(c3cccc(-c4csc(NC(=O)CNC(=O)c5ccn(C(C)(C)C)c5)n4)n3)C2)no1 (stereo not drawn) [Compound 704] | –
45 | – | – | > 0.01 | > 0.1 | N#CC1(n2ccc(C(=O)NCC(=O)Nc3nc(-c4cccc(OC5CC5)c4)cs3)c2)CC1 [Compound 554, 1-(1-cyanocyclopropyl)-N-[2-[[4-[3-(cyclopropoxy)phenyl]thiazol-2-yl]amino]-2-oxo-ethyl]pyrrole-3-carboxamide] | –
